{"source": "patent US20260083703A1", "about": "“INDOLINE DERIVATIVES AS SEROTONERGIC AGENTS USEFUL FOR THE TREATMENT OF DISORDERS RELATED THERETO” (MINDSET PHARMA INC., priority 2022, published 2026)", "key": {"[1]": {"test_system": "Male, C57BL/6J mice", "experiment": "Mouse head twitch", "format": "in vivo", "description": "The effect of different doses of representative compounds of Formula I are evaluated on head-twitch response (HTR) and other behavioural responses as behavior-based models of psychedelic activity.\nMale, C57BL/6J mice (body weight range 20-30 g) were dosed with the appropriate dose of test article, and following a 1-minute pre-treatment time, placed in individual observation chambers. Animals were visually assessed for the incidence head twitches continuously over a 1 hr period. Head twitches were defined as a rapid jerk of the head which was not elicited by an external tactile stimulus (Come and Pickering, Psychopharmacologia, 1967, 11(1): 65-78). Each head twitch was individually counted by a trained observer, and the data expressed as the mean±SEM of 6-10 mice per group. Mice were used in a single experiment only."}, "[2]": {"experiment": "Liver microsomes stability, mouse"}, "[3]": {"experiment": "Liver microsomes stability, rat"}, "[4]": {"experiment": "Liver microsomes stability, human", "details": "human"}, "[5]": {"target": "T1, human 5-HT2A (h5-HT2A) receptor (Homo sapiens, UniProt P28223)", "T1 construct": "expressed in transfected cells; grown under G418 and hygromycin B selection", "T1 sequence (P28223 whole entry)": "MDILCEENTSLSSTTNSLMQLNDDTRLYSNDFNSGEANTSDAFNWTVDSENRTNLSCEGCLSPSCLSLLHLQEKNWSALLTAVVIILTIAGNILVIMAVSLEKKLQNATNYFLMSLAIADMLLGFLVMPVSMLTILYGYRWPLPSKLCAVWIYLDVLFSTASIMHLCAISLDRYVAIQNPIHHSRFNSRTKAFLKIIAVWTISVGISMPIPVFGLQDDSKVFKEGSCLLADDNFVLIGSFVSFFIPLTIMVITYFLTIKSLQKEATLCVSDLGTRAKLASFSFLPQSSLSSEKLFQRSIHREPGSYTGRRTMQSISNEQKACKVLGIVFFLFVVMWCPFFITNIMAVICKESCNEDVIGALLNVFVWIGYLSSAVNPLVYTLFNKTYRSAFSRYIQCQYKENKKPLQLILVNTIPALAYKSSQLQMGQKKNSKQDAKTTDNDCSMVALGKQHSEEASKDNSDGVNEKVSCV", "experiment": "FLIPR assay, human 5-HT2A, agonist mode", "format": "cell-based", "description": "I. Assessment of the Effect of Exemplary Compounds of Formula I Targeting on Human 5-HT2A (h5-HT2A) Receptor Under Agonist Mode:\nI.c. Experimental Methods and Procedures: • 1. Cells were cultured in cell culture medium (DMEM containing 10% FBS, 1×penicillin-streptomycin 300 μg/ml G418 and 100 μg/ml hygromycin B) at 37° C., 5% (v/v) CO2. • 2. One day before the assays, the cells were detached using TrypLE™ Express and cells were counted using cell counter. Only cells with >85% viability were used for the assay. • 3. 20000 cells/well were seeded in 30 μl/well culture medium to a 384-well cell plate and cells were incubated overnight at 37° C., 5% (v/v) CO2. • 4. On the assay day, 2×dye solution was prepared following the manual of the FLIPR® Calcium 6 Assay Kit: i. The dye was diluted with assay buffer (20 mM HEPES in 1×HBSS, PH7.4); ii. Probenecid was added to the final concentration of 5 mM; iii. Vortex vigorously for 1-2 minutes. • 5. Medium was removed from cell plate by flicking the cell plate on towel papers. • 6. 10 μl of assay buffer and 10 μl of 2×dye solution was added to each well of the cell plate. • 7. The cell plate was placed on plate shaker, the plate was agitated at 600 rpm for 2 minutes. The plate was incubated at 37° C. for 2 hours followed by additional 15-minute incubation at 25° C. • 8. 3×compound in assay buffer was prepared: a. Reference compounds were diluted to required concentration with DMSO. The compounds were added to a 384-well compound plate; b. Serial dilutions were performed; c. 10 mM test compounds were added to the compound plate, and 3-fold serial dilutions were performed. d. Transfer 60 nl/well of compounds from source plate to a 384-well compound plate (Corning, 3657) by using an Echo; e. Add 20 μl/well assay buffer to the compound plate; f. Mix the plate on plate shaker for 2 mins; • 9. The cell plate, compound plate and tips were put into FLIPR, 10 μl of 3× compound was transferred to the cell plate per well with FLIPR.\n• i. The normalized fluorescence reading (RFU) was calculated as shown below, where Fmax and Fmin stand for maximum and minimum of calcium signal during defined time window: RFU=Fmax−Fmin. • ii. Calculate the percentage activation using following equation:\n[formula] • Iii. Calculate EC50 by fitting % activation against log of compound concentrations with Hill equation using XLfit."}}, "note": "“And” between values parts separate entries of the source, which are not always exact repeats. Equal entries are not always repeated."}
{"smiles": "COc1ccc2c(c1)C(C[C@H]1CCCN1C)CN2", "note": "(stereo partly drawn) [(R)-I-54]", "values": [{"measurement": "head twitch response (mean head twitches over 1 hr)", "setting": "[1]; 1 mg/kg SC", "value": 0.7}, {"measurement": "head twitch response (mean head twitches over 1 hr)", "setting": "[1]; 3 mg/kg SC", "value": 0.2}, {"measurement": "head twitch response (mean head twitches over 1 hr)", "setting": "[1]; 10 mg/kg SC", "value": 1.2}, {"measurement": "head twitch response (mean head twitches over 1 hr)", "setting": "[1]; 30 mg/kg SC", "value": 1.8}, {"measurement": "head twitch response (mean head twitches over 1 hr)", "setting": "[1]; 60 mg/kg SC", "value": 0.8}, {"measurement": "dose of peak head twitch response", "setting": "[1]; SC", "value": 30, "unit": "mg/kg"}, {"measurement": "head twitch response over the dose range tested", "setting": "[1]; SC, psilocybin 0.1-10, 5-MeO DMT 1-30, (R)-I-54 1-60 mg/kg", "value": "only a modest head twitch response"}, {"measurement": "Predicted hepatic CL", "setting": "[2]", "value": 70.39, "unit": "mL/min/kg"}, {"measurement": "Remaining Percentage", "setting": "[2]; With NADPH, 0 min", "value": 100.00, "unit": "%"}, {"measurement": "Remaining Percentage", "setting": "[2]; With NADPH, 30 min", "value": 34.74, "unit": "%"}, {"measurement": "Remaining Percentage", "setting": "[2]; With NADPH, 60 min", "value": 10.91, "unit": "%"}, {"measurement": "Remaining Percentage", "setting": "[2]; Without NADPH, 0 min", "value": 100.00, "unit": "%"}, {"measurement": "Remaining Percentage", "setting": "[2]; Without NADPH, 30 min", "value": 98.80, "unit": "%"}, {"measurement": "Remaining Percentage", "setting": "[2]; Without NADPH, 60 min", "value": 91.62, "unit": "%"}, {"measurement": "CLint scaled at 2 μM", "setting": "[2]; male, microsomes", "value": 323, "unit": "mL/min/kg"}, {"measurement": "half-life at 2 μM", "setting": "[2]; male, microsomes", "value": 18.8, "unit": "min"}, {"measurement": "microsomal CLint at 2 μM", "setting": "[2]; male, microsomes", "value": 73.8, "unit": "µL/min/mg"}, {"measurement": "Predicted hepatic CL", "setting": "[3]", "value": 49.19, "unit": "mL/min/kg"}, {"measurement": "Remaining Percentage", "setting": "[3]; With NADPH, 0 min", "value": 100.00, "unit": "%"}, {"measurement": "Remaining Percentage", "setting": "[3]; With NADPH, 30 min", "value": 2.28, "unit": "%"}, {"measurement": "Remaining Percentage", "setting": "[3]; With NADPH, 60 min", "value": 0.48, "unit": "%"}, {"measurement": "Remaining Percentage", "setting": "[3]; Without NADPH, 0 min", "value": 100.00, "unit": "%"}, {"measurement": "Remaining Percentage", "setting": "[3]; Without NADPH, 30 min", "value": 103.93, "unit": "%"}, {"measurement": "Remaining Percentage", "setting": "[3]; Without NADPH, 60 min", "value": 97.75, "unit": "%"}, {"measurement": "CLint scaled at 2 μM", "setting": "[3]; rat liver microsomes", "value": 452, "unit": "mL/min/kg"}, {"measurement": "half-life at 2 μM", "setting": "[3]; rat liver microsomes", "value": 5.5, "unit": "min"}, {"measurement": "microsomal CLint at 2 μM", "setting": "[3]; rat liver microsomes", "value": 252, "unit": "µL/min/mg"}, {"measurement": "Predicted hepatic CL", "setting": "[4]", "value": 13.52, "unit": "mL/min/kg"}, {"measurement": "Remaining Percentage", "setting": "[4]; With NADPH, 0 min", "value": 100.00, "unit": "%"}, {"measurement": "Remaining Percentage", "setting": "[4]; With NADPH, 30 min", "value": 66.49, "unit": "%"}, {"measurement": "Remaining Percentage", "setting": "[4]; With NADPH, 60 min", "value": 39.38, "unit": "%"}, {"measurement": "Remaining Percentage", "setting": "[4]; Without NADPH, 0 min", "value": 100.00, "unit": "%"}, {"measurement": "Remaining Percentage", "setting": "[4]; Without NADPH, 30 min", "value": 116.22, "unit": "%"}, {"measurement": "Remaining Percentage", "setting": "[4]; Without NADPH, 60 min", "value": 93.51, "unit": "%"}, {"measurement": "CLint scaled at 2 μM", "setting": "[4]; pooled human liver microsomes", "value": 39, "unit": "mL/min/kg"}, {"measurement": "half-life at 2 μM", "setting": "[4]; pooled human liver microsomes", "value": 44.6, "unit": "min"}, {"measurement": "microsomal CLint at 2 μM", "setting": "[4]; pooled human liver microsomes", "value": 31.1, "unit": "µL/min/mg"}, {"measurement": "EC50", "setting": "[5]", "value": "17 nM and 25 nM"}, {"measurement": "5-HT2A (FLIPR) RFU@10 μM", "setting": "[5]; 10 μM", "value": "993 RFU and 990 RFU"}]}
